Reference: the NIST ThermoML archive (doi:10.1021/je900661c)
Values joined by “and” are separate entries in the source; they are usually repeats but may differ in a detail not shown here. Equal values may be shown once. ± gives the expanded uncertainty stated by the source.

Assay: molar heat capacity at constant pressure
Settings: 5000 kPa, Liquid, thermal relaxation

Row | molar heat capacity at constant pressure (310 K) [J/K/mol] | molar heat capacity at constant pressure (315 K) [J/K/mol] | molar heat capacity at constant pressure (320 K) [J/K/mol] | molar heat capacity at constant pressure (325 K) [J/K/mol] | molar heat capacity at constant pressure (330 K) | molar heat capacity at constant pressure (335 K) [J/K/mol] | molar heat capacity at constant pressure (340 K) | SMILES | molar heat capacity at constant pressure (345 K) | molar heat capacity at constant pressure (350 K) [J/K/mol]
1 | 136.15 ± 6.7 | 140.35 ± 7.6 | 145.39 ± 7.6 | 150.43 ± 7.6 | 155.47 ± 8.4 J/K/mol | 162.2 ± 8.4 | 173.96 ± 9.2 J/K/mol | CC(F)(F)F [1,1,1-trifluoroethane] | 189.93 ± 10 J/K/mol and 192.45 ± 10 J/K/mol | 224.39 ± 12
2 | 106.65 ± 5.7 | 109.77 ± 5.7 | 113.41 ± 5.7 | 119.65 ± 6.2 | 125.9 ± 6.8 J/K/mol | 138.9 ± 7.3 | 164.39 ± 8.3 J/K/mol | FCF [difluoromethane] |  | 

Row | SMILES | molar heat capacity at constant pressure (310 K) [J/K/mol] | molar heat capacity at constant pressure (315 K) [J/K/mol] | molar heat capacity at constant pressure (320 K) [J/K/mol] | molar heat capacity at constant pressure (325 K) [J/K/mol] | molar heat capacity at constant pressure (330 K) | molar heat capacity at constant pressure (335 K) [J/K/mol] | molar heat capacity at constant pressure (340 K) | molar heat capacity at constant pressure (345 K) | molar heat capacity at constant pressure (350 K) [J/K/mol]
3 | FC(F)C(F)(F)F [pentafluoroethane] | 154.83 ± 8.4 | 159.63 ± 8.4 | 163.23 ± 8.4 | 171.63 ± 8.4 | 182.43 ± 9.6 J/K/mol and 183.63 ± 9.6 J/K/mol | 193.23 ± 9.6 | 217.24 ± 11 J/K/mol and 212.44 ± 11 J/K/mol | 242.44 ± 13 J/K/mol | 282.05 ± 14
